Measurements published in US20140056811A1, “NEW CELL-PENETRATING PEPTIDES AND USES THEREOF” (COMPUGEN LTD., priority 2010, published 2014).
pEC50: −log10 of the molar value. Where two headings read alike, the source gives them in different places. Square brackets hold non-standard residues; d marks the D form. Ends that are not written are not given here. Peptide text beside a SMILES is read from it. * marks the point of attachment. 5FAM = O=C1OC2(c3ccc(O)cc3Oc3cc(O)ccc32)c2ccc(C(=O)*)cc21

Assays:
HeLa cells = assay type: cell-based; settings: for dose response of cell viability (MTT), FIG. 8: average of duplicates; for cell viability (MTT), FIG. 7: 26.6 ug/ml and 8.88 ug/ml, 16 hours, normalized by untreated cells
Experimental: In order to examine CPPs capability to deliver into the cell a cargo, the ability of the CPPs to facilitate intracellular cargo delivery of a pro apoptotic peptide—klaklakklaklak (also referred herein as (klaklak)2), was examined. (klaklak)2 is unable to efficiently penetrate cell membranes on its own, and thus using this pro-apoptotic peptide requires efficient intracellular delivery to trigger mitochondrial disruption and mitochondrial-dependent apoptosis. HeLa cells were seeded in DMEM supplemented with 10% fetal Bovine serum (FBS) in 96-well plates, 10,000 cells/well in a total volume of 200 μL 24 hours prior to their treatment with the peptide. Cells were incubated with any one of the CPPs and/or any one of the control peptides ([…]) conjugated to pro-apoptotic peptide (klaklak)2 through a short flexible linker of Gly-Gly (as described in the above peptide synthesis section for SEQ ID NOs: 24-32) for 16 hours under tissue culture conditions. Cell viability was then assessed using MTT[3-(4,5-dimethylthiazol-2-yl)-2,5-diphenyl-2H-tetrazo-liumbromide] assay (Catalog number M5655, Sigma, Israel). MTT reagent was added to cells for 4 hours, following cell lysis using DMSO and absorbance was measured at 492 nm. As positive controls (klaklak)2 conjugated to TAT or R9 were used, corresponding to SEQ ID NOs:26 and 25, respectively. As negative controls (klaklak)2 on its own (SEQ ID NO:31), (klaklak)2 conjugated to N5 ([…]) and peptides not conjugated to (klaklak)2 were used.

[1] = In vitro cytotoxicity by LDH (lactate dehydrogenase) analysis; assay type: cell-based; settings: human; 5-FAM labeled peptides, 10 uM (also stated 10 ug/ml), 1 h, 37° C., HeLa cells; read-out: LDH % cytotoxicity
Experimental: In order to assess the in vitro cytotoxicity of the peptides, an LDH (lactate dehydrogenase) analysis was carried out, using LDH kit (Promega G1782), according to manufacturer instructions.
Briefly, HeLa cells from 5 ml of confluent T75 flask were seed in 96 well plate at 10×10^4 cells/mL in 0.1 ml DMEM supplied with 10% Fetal Calf Serum. After 24 hrs incubation with growth medium, wells were replaced with Serum Free growth medium for 24 hrs, and then cells were washed with OptiMEM and replaced with 0.1 ml peptide solution at 10 uM for 1 h at 37° C. 50 ul of supernatant were transferred to the new plate and detected according to Cyto Tox 96, Non Radioactive cytotoxicity assay, (LDH kit Promega G1782). Table 5 presents the results of in vitro cytotoxicity measurements by LDH for S22, S24, S36 and S40 peptides and two positive control peptides; Tat(47-57) and R9. LDH experiment was done with fluorescent labeled (5-FAM) peptides in concentration of […] and the % of cytotoxicity was measured by LDH levels.

Row | Compound | cytotoxicity at 1 h, 10 µM [1] [%] | cell viability (MTT), FIG. 7 (HeLa cells; HeLa cells) | other results
1 | VATIKSVSFYTRKGG-klaklakklaklak (Ac-VATIKSVSFYTRKGG[dK][dL][dA][dK][dL][dA][dK][dK][dL][dA][dK][dL][dA][dK]-NH2) [N2-klaklak, negative control peptide N2 conjugated to (klaklak)2 with GG linker, reference compound] |  |  | dose response of cell viability (MTT), FIG. 8 (HeLa cells; 16 hr, HeLa cells): no dose response curve—no effect
2 | RRRRRRRRRGG-klaklakklaklak (RRRRRRRRRGG[dK][dL][dA][dK][dL][dA][dK][dK][dL][dA][dK][dL][dA][dK]) [R9-klaklak, positive control R9 conjugated to (klaklak)2 with GG linker, reference compound] |  |  | dose response of cell viability (MTT), FIG. 8 (HeLa cells; 16 hr, HeLa cells): effective dose response curve
3 | N=C(N)NCCC[C@H](NC(=O)c1ccc2c(c1)C(=O)OC21c2ccc(O)cc2Oc2cc(O)ccc21)C(=O)N[C@@H](CCCNC(=N)N)C(=O)N[C@@H](CCCNC(=N)N)C(=O)N[C@@H](Cc1c[nH]cn1)C(=O)N[C@@H](CCC(N)=O)C(=O)N[C@@H](CCCNC(=N)N)C(=O)N[C@@H](CCCCN)C(=O)N[C@@H](Cc1ccc(O)cc1)C(=O)N[C@@H](CCCNC(=N)N)C(=O)N[C@@H](CCCNC(=N)N)C(=O)N[C@@H](Cc1ccc(O)cc1)C(N)=O [S36, RRRHQRKYRRY] (5FAM-RRRHQRKYRRY-NH2) | 3 |  | 
4 | CC(=O)N[C@@H](CCCNC(=N)N)C(=O)N[C@@H](CCCNC(=N)N)C(=O)N[C@@H](CCCNC(=N)N)C(=O)N[C@@H](Cc1c[nH]cn1)C(=O)N[C@@H](CCC(N)=O)C(=O)N[C@@H](CCCNC(=N)N)C(=O)N[C@@H](CCCCN)C(=O)N[C@@H](Cc1ccc(O)cc1)C(=O)N[C@@H](CCCNC(=N)N)C(=O)N[C@@H](CCCNC(=N)N)C(=O)N[C@@H](Cc1ccc(O)cc1)C(=O)NCC(=O)NCC(=O)N[C@H](CCCCN)C(=O)N[C@H](CC(C)C)C(=O)N[C@H](C)C(=O)N[C@H](CCCCN)C(=O)N[C@H](CC(C)C)C(=O)N[C@H](C)C(=O)N[C@H](CCCCN)C(=O)N[C@H](CCCCN)C(=O)N[C@H](CC(C)C)C(=O)N[C@H](C)C(=O)N[C@H](CCCCN)C(=O)N[C@H](CC(C)C)C(=O)N[C@H](C)C(=O)N[C@H](CCCCN)C(N)=O [S36-klaklak, RRRHQRKYRRYGG-klaklakklaklak] (Ac-RRRHQRKYRRYGG[dK][dL][dA][dK][dL][dA][dK][dK][dL][dA][dK][dL][dA][dK]-NH2) |  | reduction in cell viability | pEC50 (HeLa cells; 16 h): 4.95
5 | N=C(N)NCCC[C@H](NC(=O)[C@H](CCCNC(=N)N)NC(=O)[C@H](CCCNC(=N)N)NC(=O)[C@H](CCCNC(=N)N)NC(=O)[C@H](CCCNC(=N)N)NC(=O)[C@H](CCCNC(=N)N)NC(=O)[C@H](CCCNC(=N)N)NC(=O)[C@H](CCCNC(=N)N)NC(=O)[C@H](CCCNC(=N)N)NC(=O)c1ccc2c(c1)C(=O)OC21c2ccc(O)cc2Oc2cc(O)ccc21)C(N)=O [9R, RRRRRRRRR, reference compound] | 2 |  | 
6 | KPSARMLLLKGFGKGG-klaklakklaklak (Ac-KPSARMLLLKGFGKGG[dK][dL][dA][dK][dL][dA][dK][dK][dL][dA][dK][dL][dA][dK]-NH2) [S8-klaklak, S8 conjugated to (klaklak)2 with GG linker] |  | reduction in cell viability | 
7 | CC(=O)N[C@@H](CCCCN)C(=O)N[C@@H](CCCCN)C(=O)N[C@H](C(=O)N[C@@H](CC(C)C)C(=O)N[C@@H](CCCCN)C(=O)N[C@@H](CCCCN)C(=O)N[C@@H](CC(C)C)C(=O)N[C@@H](Cc1c[nH]c2ccccc12)C(=O)N[C@@H](CCCCN)C(=O)N[C@@H](CCCCN)C(=O)N[C@@H](CCCCN)C(=O)N[C@@H](CCCCN)C(=O)N[C@@H](CCCNC(=N)N)C(=O)N[C@@H](CCCCN)C(=O)NCC(=O)NCC(=O)N[C@H](CCCCN)C(=O)N[C@H](CC(C)C)C(=O)N[C@H](C)C(=O)N[C@H](CCCCN)C(=O)N[C@H](CC(C)C)C(=O)N[C@H](C)C(=O)N[C@H](CCCCN)C(=O)N[C@H](CCCCN)C(=O)N[C@H](CC(C)C)C(=O)N[C@H](C)C(=O)N[C@H](CCCCN)C(=O)N[C@H](CC(C)C)C(=O)N[C@H](C)C(=O)N[C@H](CCCCN)C(N)=O)[C@@H](C)O [S24-klaklak, KKTLKKLWKKKKRKGG-klaklakklaklak] (Ac-KKTLKKLWKKKKRKGG[dK][dL][dA][dK][dL][dA][dK][dK][dL][dA][dK][dL][dA][dK]-NH2) |  | reduction in cell viability | EC50 (HeLa cells; 16 hr, HeLa cells, unit only from the X axis (log uM concentration), read-out: EC50 of cell viability (MTT), FIG. 9): 8.45 µM
8 | CC(C)C[C@H](NC(=O)[C@H](CCCCN)NC(=O)[C@H](CCCCN)NC(=O)[C@H](CC(C)C)NC(=O)[C@@H](NC(=O)[C@H](CCCCN)NC(=O)[C@H](CCCCN)NC(=O)c1ccc2c(c1)C(=O)OC21c2ccc(O)cc2Oc2cc(O)ccc21)[C@@H](C)O)C(=O)N[C@@H](Cc1c[nH]c2ccccc12)C(=O)N[C@@H](CCCCN)C(=O)N[C@@H](CCCCN)C(=O)N[C@@H](CCCCN)C(=O)N[C@@H](CCCCN)C(=O)N[C@@H](CCCNC(=N)N)C(=O)N[C@@H](CCCCN)C(N)=O [S24, KKTLKKLWKKKKRK] (5FAM-KKTLKKLWKKKKRK-NH2) | 10 |  | 
9 | klaklakklaklak (KLAKLAKKLAKLAK; D-amino acids) [(klaklak)2, pro apoptotic peptide used as cargo, reference compound] |  | almost no reduction in cell viability | 
10 | YGRKKRRQRRRGG-klaklakklaklak (YGRKKRRQRRRGGKLAKLAKKLAKLAK) [TAT-klaklak, positive control TAT conjugated to (klaklak)2 with GG linker, reference compound] |  |  | dose response of cell viability (MTT), FIG. 8 (HeLa cells; 16 hr, HeLa cells): effective dose response curve
11 | CC(C)C[C@H](NC(=O)[C@H](Cc1ccccc1)NC(=O)c1ccc2c(c1)C(=O)OC21c2ccc(O)cc2Oc2cc(O)ccc21)C(=O)N[C@@H](CCCNC(=N)N)C(=O)N[C@@H](CCCNC(=N)N)C(=O)N[C@@H](CCCNC(=N)N)C(=O)N[C@@H](CCCNC(=N)N)C(=O)N[C@@H](CCCNC(=N)N)C(=O)N[C@@H](Cc1ccccc1)C(=O)N[C@H](C(=O)N[C@@H](CCCNC(=N)N)C(=O)N[C@@H](CCC(N)=O)C(=O)N[C@H](C(N)=O)[C@@H](C)O)[C@@H](C)O [S40, FLRRRRRFTRQT] (5FAM-FLRRRRRFTRQT-NH2) | 8 |  | 
12 | FLRRRRRFTRQTGG-klaklakklaklak (Ac-FLRRRRRFTRQTGG[dK][dL][dA][dK][dL][dA][dK][dK][dL][dA][dK][dL][dA][dK]-NH2) [S40-klaklak, S40 conjugated to (klaklak)2 with GG linker] |  | reduction in cell viability | 
